From article PMC8003391, “QSAR-Based Virtual Screening of Natural Products Database for Identification of Potent Antimalarial Hits” (Biomolecules, 2021)
Like-named read-outs stand apart in the source and are kept apart here.

Legend:
P. falciparum W2 [1] = tested on: P. falciparum W2; parameters: method as in PMID 25461309; conditions: read-out: EC50 against multi-resistant strain; cited from earlier work
P. falciparum 3D7 = test: In vitro P. falciparum growth inhibition assay (SybrGreen), chloroquine-sensitive 3D7 strain; type: cell-based, Plasmodium falciparum; conditions: for inhibition at 5 µM: 3D7, read-out: inhibition of parasite growth
Experimental: (§1) Chloroquine-sensitive (3D7) and multi-drug-resistant (W2) P. falciparum strains were cultured following the candle jar method as described by Trager and Jensen. Briefly, parasites were maintained in RPMI 1640 medium supplemented with 10% A+ human plasma at 5% CO2 atmosphere. Ring stage synchronized cultures were obtained by two consecutive treatments with a 5% D-sorbitol solution [32] in 48 h intervals.
(§2) Parasite growth inhibition assays were conducted by distributing ring stage synchronized parasites at 2% hematocrit and 0.5% parasitemia in 96-well plates (NEST Biotechnology Co., Ltd., Wuxi, Jiangsu, China). Parasites were incubated in the presence of drugs in a two-fold 12-point serial dilution starting at 10 µM in duplicate. Chloroquine was used as an antimalarial standard. At the end of a 72 h incubation, parasitemia was determined by fluorescence reading at 490 nm excitation and 540 nm emission (BMG CLARIOstar, BMG Labtech Inc., Durham, NC, USA) using SybrGreen fluorescent dye as described by Hartwig et al.. Parasite growth inhibition was determined as a percentage relative to drug-free control. EC50 values were interpolated from log doses vs. inhibition curves in GraphPad Prism 6 (GraphPad, La Jolla, CA, USA).

P. falciparum W2 [2] = test: In vitro P. falciparum growth inhibition assay (SybrGreen), multi-drug-resistant W2 strain; type: cell-based, Plasmodium falciparum; conditions: for activity more potent than artesunate: W2, compared with artesunate EC50 = 5.7 nM
Experimental: as §1, §2

[3] = Cytotoxicity, MTT reduction assay; type: cell-based; conditions: human
Experimental: Cytotoxicity of selected compounds was evaluated using the MTT reduction assay (3-[4,5-dimethyl-thiazol-2-yl]-2,5-diphenyltetrazolium chloride). Human hepatoma (HepG2) cells were cultured in Dulbecco’s Modified Eagle Medium supplemented with gentamycin (40 mg/L) and 10% heat-inactivated fetal bovine serum at 37 °C and 5% CO2. Cells were seeded in 96-well plates (NEST Biotechnology Co., Ltd., Wuxi, Jiangsu, China) at 10^5 cells per well and incubated in the presence of a serial dilution of the drugs starting at 100 µM. After 72 h of incubation, MTT was added to the wells. The optical density was measured at 570 nm (CLARIOStar, Labtech BMG Inc, Durham, NC, USA) and cell viability was expressed as a percentage relative to the untreated control. CC50 values were calculated by plotting a log dose vs. viability curve in GraphPad Prism 6 (GraphPad, La Jolla, CA, USA). The selectivity index (SI) of the compounds was determined by the expression:SI = (HepG2 CC50)/(Pf EC50), where HepG2 CC50 corresponds to the cytotoxic concentration of compounds in HepG2 cells and Pf EC50 relates to the 50% inhibitory concentration on P. falciparum 3D7 strain.

[4] = Plasmodium falciparum, 3D7, 72 h, chloroquine-sensitive 3D7 strain, 72 h, SybrGreen, ± standard deviation, read-out: EC50 Pf3D7
[5] = Plasmodium falciparum, W2, 72 h, multi-drug-resistant W2 strain, 72 h, SybrGreen, ± standard deviation, read-out: EC50 PfW2
[6] = multi-drug-resistant W2 strain, 72 h, SybrGreen, ± standard deviation, read-out: EC50 PfW2
[7] = chloroquine-sensitive 3D7 strain, 72 h, SybrGreen, ± standard deviation, read-out: EC50 Pf3D7
[8] = HepG2 cells, 72 h, MTT, read-out: CC50 HepG2
[9] = Plasmodium falciparum, W2, W2, text value, read-out: EC50 against P. falciparum W2
[10] = Plasmodium falciparum, 3D7, 3D7, text value, read-out: EC50 against P. falciparum 3D7

SMILES | EC50 (P. falciparum 3D7; [4]) | EC50 (P. falciparum W2 [2]; [5]) | inhibition at 5 µM (P. falciparum 3D7; Plasmodium falciparum, 72 h) | EC50 (P. falciparum 3D7; [7]) | CC50 at 72 h [3, 8] | other results
C[C@H]1[C@H](OC(=O)CCC(=O)O)O[C@@H]2O[C@@]3(C)CC[C@H]4[C@H](C)CC[C@@H]1[C@@]24OO3 [Artesunate, reference compound] | 0.0016 µM | – | – | – | – | EC50 (P. falciparum W2 [1]): 5.7 nM
CCN(CC)CCCC(C)Nc1ccnc2cc(Cl)ccc12 (stereo not drawn) [Chloroquine, reference compound] | – | – | – | – | – | EC50 (P. falciparum W2 [2]; Plasmodium falciparum, W2, 72 h, read-out: EC50 PfW2): 147 ± 40 nM; EC50 (P. falciparum 3D7; Plasmodium falciparum, 3D7, 72 h, read-out: EC50 Pf3D7): 0.0079 µM
COc1ccccc1CNC(=O)C1CN2CCC1CC2Cn1cc(-c2cccc(N)c2)nn1 (stereo not drawn) [LDT-586] | < 5 µM | < 5000 nM | > 70% | 4.52 ± 0.91 µM | – | EC50 (P. falciparum W2 [2]; [6]): 3440 ± 1300 nM; CC50 at 72 h [3]: 98.6 µM
CCOC(=O)c1ccc2[nH]cc(C(=O)OCC)c(=O)c2c1 [LDT-588] | < 5 µM | – | > 70% | 3.84 ± 1.45 µM | 67 ± 2.28 µM | –
Cn1c(=O)[nH]c2nnc(-c3ccc(Cl)cc3)nc2c1=O [LDT-592] | 9.09 ± 3.74 µM | 3110 ± 540 nM | > 70% | – | 17 µM | –
COC(CNC(=O)CCC(=O)OC1OC2OC3(C)CCC4C(C)CCC(C1C)C24OO3)OC (stereo not drawn) [LDT-597] | – | – | > 70% | – | 18.3 ± 3.51 µM | EC50 (P. falciparum W2 [2]; [9]): 0.56 nM; activity more potent than artesunate (P. falciparum W2 [2]): about 10 fold; EC50 (P. falciparum 3D7; [10]): 0.00054 µM
CC(NC(=O)CCCNC(=O)CCC(=O)OC1OC2OC3(C)CCC4C(C)CCC(C1C)C24OO3)C(=O)O (stereo not drawn) [LDT-598] | – | – | > 70% | – | 25.9 ± 1.13 µM | EC50 (P. falciparum W2 [2]; [9]): 0.59 nM; activity more potent than artesunate (P. falciparum W2 [2]): about 10 fold; EC50 (P. falciparum 3D7; [10]): 0.00078 µM
COc1ccc(C2c3[nH]c4ccccc4c3C[C@H]3C(=O)N(C4CC4)CC(=O)N23)cc1OC (stereo partly drawn) [LDT-599] | < 5 µM | < 5000 nM | > 70% | 3.68 ± 1.92 µM | 21 ± 2.51 µM | EC50 (P. falciparum W2 [2]; [6]): 2740 ± 780 nM
COc1cc(C2NCCc3cc(OC)c(OC)cc32)ccc1O (stereo not drawn) [LDT-601] | 6.61 ± 3.2 µM | 650 ± 470 nM | > 70% | – | 21.8 ± 4.16 µM | –
COc1ccc(C2CC(=O)NC3=C2C(=O)C2(Oc4c(Cl)c(OC)cc(OC)c4C2=O)C(C)C3)cc1O (stereo not drawn) [LDT-614] | 5.26 ± 0.52 µM | 5650 ± 3110 nM | > 70% | – | 23.6 ± 1.82 µM | –
